A word on the EC50: it is the concentration that produces a half-maximal response. A word on the clearance: it is the volume of plasma or blood freed of the substance per unit of time. A low value points to a low capacity for elimination.

The results in this text go back to ChEMBL document CHEMBL3822442, “Synthesis and Pharmacological Characterization of Novel Glucagon-like Peptide-2 (GLP-2) Analogues with Low Systemic Clearance” (J Med Chem, 2016).

The source made the active and inactive calls. The rule behind the calls is not given here. Non-standard residues stand in square brackets, D forms with d. Residues, ends and D or L forms follow the SMILES beside them. ξ: configuration not given here. ξhPhe = NC(CCc1ccccc1)C(=O)O; ξ2Thi = NC(Cc1cccs1)C(=O)O; ξNle = CCCCC(N)C(=O)O

For series [1], the target named is T1, Glucagon-like peptide 2 receptor (Homo sapiens, UniProt O95838).
T1 sequence (O95838 whole entry): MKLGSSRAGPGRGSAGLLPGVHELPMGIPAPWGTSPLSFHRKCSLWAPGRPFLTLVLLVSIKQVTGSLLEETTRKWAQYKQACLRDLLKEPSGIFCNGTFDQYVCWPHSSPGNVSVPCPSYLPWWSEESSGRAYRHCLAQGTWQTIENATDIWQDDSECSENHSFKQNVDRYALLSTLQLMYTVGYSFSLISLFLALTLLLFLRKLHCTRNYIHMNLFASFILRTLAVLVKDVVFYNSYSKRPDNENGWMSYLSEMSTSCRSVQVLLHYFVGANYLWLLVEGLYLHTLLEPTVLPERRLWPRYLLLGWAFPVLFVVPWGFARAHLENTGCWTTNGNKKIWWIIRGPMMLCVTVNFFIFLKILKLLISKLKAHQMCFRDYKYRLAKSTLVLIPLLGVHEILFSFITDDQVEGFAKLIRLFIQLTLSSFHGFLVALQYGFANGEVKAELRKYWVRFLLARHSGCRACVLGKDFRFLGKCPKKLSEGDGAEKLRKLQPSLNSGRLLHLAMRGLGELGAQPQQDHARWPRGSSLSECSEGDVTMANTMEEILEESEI
Briefly: Agonist activity at human GLP2R expressed in HEK293 cells after 5 hrs by luciferase reporter gene assay. Format: cell-based. (In general: A reporter such as luciferase makes a cellular process visible.)

The nature of series [2]: Systemic clearance in Sprague-Dawley rat at 0.2 mg/kg, iv through cassette dosing measured up to 300 mins by LC/MS/MS analysis. The class given is ADME, organism-based. The conditions noted are these: in vivo.
Series [3] concerns the target Glucagon receptor (Homo sapiens) (UniProt P47871). Nature of the series: Agonist activity at human GCGR expressed in HEK293 cells up to 1000 nM after 5 hrs by luciferase reporter gene assay. Format: cell-based.
In a further series the test system is HEK293. Nature of the series: Selectivity ratio of EC50 for human GLP1R expressed in HEK293 cells to EC50 for human GLP2R expressed in HEK293. The class given is cell-based.
Series [4] addresses Glucagon-like peptide 1 receptor (Homo sapiens, UniProt P43220). Briefly: Agonist activity at human GLP1R expressed in HEK293 cells after 5 hrs by luciferase reporter gene assay. Format: cell-based.
Series [5] in a line: Protein binding in rat plasma at 200 to 1000 ng/ml incubated for 15 mins by LC/MS/MS based ultracentrifugation method. Format: ADME, cell-free. To be noted: read-out: PPB (converted).

Sequence of Glucagon receptor (Homo sapiens) (P47871 whole entry): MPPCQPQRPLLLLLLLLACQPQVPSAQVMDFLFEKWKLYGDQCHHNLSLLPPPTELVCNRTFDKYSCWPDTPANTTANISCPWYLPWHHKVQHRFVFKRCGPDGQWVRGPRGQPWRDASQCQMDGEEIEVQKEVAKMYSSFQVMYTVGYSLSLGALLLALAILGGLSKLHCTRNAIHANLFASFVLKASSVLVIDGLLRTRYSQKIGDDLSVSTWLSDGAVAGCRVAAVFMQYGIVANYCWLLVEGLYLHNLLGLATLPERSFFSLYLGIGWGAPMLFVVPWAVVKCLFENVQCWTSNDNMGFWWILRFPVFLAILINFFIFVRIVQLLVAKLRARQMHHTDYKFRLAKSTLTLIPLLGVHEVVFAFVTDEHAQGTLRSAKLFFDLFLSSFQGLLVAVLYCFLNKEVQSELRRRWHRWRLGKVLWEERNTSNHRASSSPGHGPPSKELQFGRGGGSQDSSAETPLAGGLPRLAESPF
Sequence of Glucagon-like peptide 1 receptor (P43220 whole entry): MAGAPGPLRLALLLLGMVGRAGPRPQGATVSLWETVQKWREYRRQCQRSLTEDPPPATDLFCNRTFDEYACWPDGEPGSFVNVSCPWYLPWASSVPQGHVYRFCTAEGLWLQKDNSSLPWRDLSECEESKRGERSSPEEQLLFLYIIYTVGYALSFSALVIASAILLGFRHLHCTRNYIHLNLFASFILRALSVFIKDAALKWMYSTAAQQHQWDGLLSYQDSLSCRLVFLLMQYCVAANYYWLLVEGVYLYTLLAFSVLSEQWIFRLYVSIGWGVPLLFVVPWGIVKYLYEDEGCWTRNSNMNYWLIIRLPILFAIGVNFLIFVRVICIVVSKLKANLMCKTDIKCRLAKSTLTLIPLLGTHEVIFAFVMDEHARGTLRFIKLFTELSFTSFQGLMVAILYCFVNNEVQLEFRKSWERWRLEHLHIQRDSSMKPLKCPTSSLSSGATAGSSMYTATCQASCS

Turning to `CCCCC(NC(=O)[C@H](CCC(=O)O)NC(=O)[C@H](CC(=O)O)NC(=O)[C@H](CO)NC(=O)[C@H](Cc1ccccc1)NC(=O)[C@H](CO)NC(=O)CNC(=O)[C@H](CC(=O)O)NC(=O)CNC(=O)[C@@H](N)Cc1cnc[nH]1)C(=O)N[C@@H](CC(N)=O)C(=O)N[C@H](C(=O)N[C@H](C(=O)N[C@@H](CC(C)C)C(=O)N[C@@H](CC(=O)O)C(=O)N[C@@H](Cc1ccc(O)cc1)C(=O)N[C@@H](CC(C)C)C(=O)N[C@@H](C)C(=O)N[C@@H](C)C(=O)N[C@@H](CCCNC(=N)N)C(=O)N[C@@H](CC(=O)O)C(=O)N[C@@H](Cc1ccccc1)C(=O)N[C@H](C(=O)N[C@@H](CC(N)=O)C(=O)N[C@@H](Cc1c[nH]c2ccccc12)C(=O)N[C@@H](CC(C)C)C(=O)N[C@H](C(=O)N[C@@H](CCC(N)=O)C(=O)N[C@H](C(=O)N[C@@H](CCCCN)C(N)=O)[C@@H](C)O)[C@@H](C)CC)[C@@H](C)CC)[C@@H](C)CC)[C@@H](C)O` (stereo partly specified) (H-HGDGSFSDE[ξNle]NTILDYLAARDFINWLIQTK-NH2), the results for the EC50 in series [1] and in series [4] were 0.11 nM and > 1000 nM, respectively. Also, the clearance in series [2] was 1.2 mL/min/kg. Moreover, in series [3], the result was inactive. The Ratio EC50 with HEK293 was > 9000.
For `CCCCC(NC(=O)[C@H](CCC(=O)O)NC(=O)[C@H](CC(=O)O)NC(=O)[C@H](CO)NC(=O)[C@H](Cc1ccccc1)NC(=O)[C@H](CO)NC(=O)CNC(=O)[C@H](CC(=O)O)NC(=O)CNC(=O)[C@@H](N)Cc1cnc[nH]1)C(=O)N[C@@H](CC(N)=O)C(=O)N[C@H](C(=O)N[C@H](C(=O)N[C@@H](CC(C)C)C(=O)N[C@@H](CC(=O)O)C(=O)NC(CCc1ccccc1)C(=O)N[C@@H](CC(C)C)C(=O)N[C@@H](C)C(=O)N[C@@H](C)C(=O)N[C@@H](CCCNC(=N)N)C(=O)N[C@@H](CC(=O)O)C(=O)N[C@@H](Cc1ccccc1)C(=O)N[C@H](C(=O)N[C@@H](CC(N)=O)C(=O)N[C@@H](Cc1c[nH]c2ccccc12)C(=O)N[C@@H](CC(C)C)C(=O)N[C@H](C(=O)N[C@@H](CCC(N)=O)C(=O)N[C@H](C(=O)N[C@@H](CCCCN)C(N)=O)[C@@H](C)O)[C@@H](C)CC)[C@@H](C)CC)[C@@H](C)CC)[C@@H](C)O` (stereo partly specified) (H-HGDGSFSDE[ξNle]NTILD[ξhPhe]LAARDFINWLIQTK-NH2), the EC50 in series [1] was 0.11 nM; in series [4] it was > 1000 nM. The molecule further displayed a clearance in series [2] of 0.44 mL/min/kg. For the same molecule, the result in series [3] was inactive. The Ratio EC50 with HEK293 was > 9000.
The matching figures for `CCCCC(NC(=O)[C@H](CCC(=O)O)NC(=O)[C@H](CC(=O)O)NC(=O)[C@H](CO)NC(=O)[C@H](Cc1ccccc1)NC(=O)[C@H](CO)NC(=O)CNC(=O)[C@H](CC(=O)O)NC(=O)CNC(=O)[C@@H](N)Cc1cnc[nH]1)C(=O)N[C@@H](CC(N)=O)C(=O)N[C@H](C(=O)N[C@H](C(=O)N[C@@H](CC(C)C)C(=O)N[C@@H](CC(=O)O)C(=O)N[C@@H](Cc1c[nH]c2ccccc12)C(=O)N[C@@H](CC(C)C)C(=O)N[C@@H](C)C(=O)N[C@@H](C)C(=O)N[C@@H](CCCNC(=N)N)C(=O)N[C@@H](CC(=O)O)C(=O)N[C@@H](Cc1ccccc1)C(=O)N[C@H](C(=O)N[C@@H](CC(N)=O)C(=O)N[C@@H](Cc1c[nH]c2ccccc12)C(=O)N[C@@H](CC(C)C)C(=O)N[C@H](C(=O)N[C@@H](CCC(N)=O)C(=O)N[C@H](C(=O)N[C@@H](CCCCN)C(N)=O)[C@@H](C)O)[C@@H](C)CC)[C@@H](C)CC)[C@@H](C)CC)[C@@H](C)O` (stereo partly specified) (H-HGDGSFSDE[ξNle]NTILDWLAARDFINWLIQTK-NH2): 0.15 nM, > 1000 nM, 0.5 mL/min/kg, “inactive” and > 6600.
Regarding `CCCCC(NC(=O)[C@H](CCC(=O)O)NC(=O)[C@H](CC(=O)O)NC(=O)[C@H](CO)NC(=O)[C@H](Cc1ccccc1)NC(=O)[C@H](CO)NC(=O)CNC(=O)[C@H](CC(=O)O)NC(=O)CNC(=O)[C@@H](N)Cc1cnc[nH]1)C(=O)N[C@@H](CC(N)=O)C(=O)N[C@H](C(=O)N[C@H](C(=O)N[C@@H](CC(C)C)C(=O)N[C@@H](CC(=O)O)C(=O)NC(Cc1cccs1)C(=O)N[C@@H](CC(C)C)C(=O)N[C@@H](C)C(=O)N[C@@H](C)C(=O)N[C@@H](CCCNC(=N)N)C(=O)N[C@@H](CC(=O)O)C(=O)N[C@@H](Cc1ccccc1)C(=O)N[C@H](C(=O)N[C@@H](CC(N)=O)C(=O)N[C@@H](Cc1c[nH]c2ccccc12)C(=O)N[C@@H](CC(C)C)C(=O)N[C@H](C(=O)N[C@@H](CCC(N)=O)C(=O)N[C@H](C(=O)N[C@@H](CCCCN)C(N)=O)[C@@H](C)O)[C@@H](C)CC)[C@@H](C)CC)[C@@H](C)CC)[C@@H](C)O` (stereo partly specified) (H-HGDGSFSDE[ξNle]NTILD[ξ2Thi]LAARDFINWLIQTK-NH2), the EC50 in series [1] is 0.2 nM; in series [4], > 1000 nM. Further, in series [2], the clearance turned out to be 6.1 mL/min/kg. In series [3], the outcome was inactive. Also, in the series on HEK293, the Ratio EC50 is > 5000.
For the molecule `CCCC[C@H](NC(=O)[C@H](CCC(=O)O)NC(=O)[C@H](CC(=O)O)NC(=O)[C@H](CO)NC(=O)[C@H](Cc1ccccc1)NC(=O)[C@H](CO)NC(=O)CNC(=O)[C@H](CC(=O)O)NC(=O)CNC(=O)[C@@H](N)Cc1cnc[nH]1)C(=O)N[C@H](Cc1ccccc1)C(=O)N[C@H](C(=O)N[C@H](C(=O)N[C@@H](CC(C)C)C(=O)N[C@@H](CC(=O)O)C(=O)N[C@@H](CC(N)=O)C(=O)N[C@@H](CC(C)C)C(=O)N[C@@H](C)C(=O)N[C@@H](C)C(=O)N[C@@H](CCCNC(=N)N)C(=O)N[C@@H](CC(=O)O)C(=O)N[C@@H](Cc1ccccc1)C(=O)N[C@H](C(=O)N[C@@H](CC(N)=O)C(=O)N[C@@H](Cc1c[nH]c2ccccc12)C(=O)N[C@@H](CC(C)C)C(=O)N[C@H](C(=O)N[C@@H](CCC(N)=O)C(=O)N[C@H](C(=O)N[C@@H](CCCCN)C(N)=O)[C@@H](C)O)[C@@H](C)CC)[C@@H](C)CC)[C@@H](C)CC)[C@@H](C)O`, the EC50 in series [1] worked out at 0.09 nM; in series [4], 120 nM. The fraction unbound at 0.25 h in series [5] is 0.039.
As to `CCCCC(NC(=O)[C@H](CCC(=O)O)NC(=O)[C@H](CC(=O)O)NC(=O)[C@H](CO)NC(=O)[C@H](Cc1ccccc1)NC(=O)[C@H](CO)NC(=O)CNC(=O)[C@H](CC(=O)O)NC(=O)CNC(=O)[C@@H](N)Cc1cnc[nH]1)C(=O)N[C@@H](CC(N)=O)C(=O)N[C@H](C(=O)N[C@H](C(=O)N[C@@H](CC(C)C)C(=O)N[C@@H](CC(=O)O)C(=O)N[C@@H](Cc1cnc[nH]1)C(=O)N[C@@H](CC(C)C)C(=O)N[C@@H](C)C(=O)N[C@@H](C)C(=O)N[C@@H](CCCNC(=N)N)C(=O)N[C@@H](CC(=O)O)C(=O)N[C@@H](Cc1ccccc1)C(=O)N[C@H](C(=O)N[C@@H](CC(N)=O)C(=O)N[C@@H](Cc1c[nH]c2ccccc12)C(=O)N[C@@H](CC(C)C)C(=O)N[C@H](C(=O)N[C@@H](CCC(N)=O)C(=O)N[C@H](C(=O)N[C@@H](CCCCN)C(N)=O)[C@@H](C)O)[C@@H](C)CC)[C@@H](C)CC)[C@@H](C)CC)[C@@H](C)O` (stereo partly specified) (H-HGDGSFSDE[ξNle]NTILDHLAARDFINWLIQTK-NH2), the EC50 was 0.42 nM in series [1] and > 1000 nM in series [4]. Further, the clearance in series [2] came out at 0.13 mL/min/kg. Further, in series [3], the result was inactive. In addition, the Ratio EC50 in the series with HEK293 is > 2300.
Turning to `CCCC[C@H](NC(=O)[C@H](CCC(=O)O)NC(=O)[C@H](CC(=O)O)NC(=O)[C@H](CO)NC(=O)[C@H](Cc1ccccc1)NC(=O)[C@H](CO)NC(=O)CNC(=O)[C@H](CC(=O)O)NC(=O)CNC(=O)[C@@H](N)Cc1cnc[nH]1)C(=O)N[C@H](Cc1ccccc1)C(=O)N[C@H](C(=O)N[C@H](C(=O)N[C@@H](CC(C)C)C(=O)N[C@@H](CC(=O)O)C(=O)N[C@@H](CC(C)C)C(=O)N[C@@H](CC(C)C)C(=O)N[C@@H](C)C(=O)N[C@@H](C)C(=O)N[C@@H](CCCNC(=N)N)C(=O)N[C@@H](CC(=O)O)C(=O)N[C@@H](Cc1ccccc1)C(=O)N[C@H](C(=O)N[C@@H](CC(N)=O)C(=O)N[C@@H](Cc1c[nH]c2ccccc12)C(=O)N[C@@H](CC(C)C)C(=O)N[C@H](C(=O)N[C@@H](CCC(N)=O)C(=O)N[C@H](C(=O)N[C@@H](CCCCN)C(N)=O)[C@@H](C)O)[C@@H](C)CC)[C@@H](C)CC)[C@@H](C)CC)[C@@H](C)O`, the values for the EC50 in series [1] and in series [4] were 0.08 nM and > 1000 nM, respectively. The fraction unbound at 0.25 h in series [5] is 0.024.
